In US20200030284A1, “MEDICAL USE OF ARTEMISININ DERIVATIVE FOR TREATING INFLAMMATORY BOWEL DISEASE” (SHANGHAI INSTITUTE OF MATERIA MEDICA,CHINESE ACADEMY OF …, priority 2017, published 2020):
Structures can show the parent of a compound that is named as a salt.

How the values were obtained:
Format in all cases: in vivo, Balb/c mice
[1] = test system: macrophages and neutrophils in mesenteric lymph nodes and spleen of DSS-induced colitis mice; test: Inflammatory cell detection by flow cytometry in mesenteric lymph nodes and spleen; settings: 10 mg/kg intragastric, FIG. 3A and 3B
Method: FIG. 3 is graphs showing the results of flow cytometry analysis, in which a single cell suspension was prepared from mesenteric lymph nodes and spleen of mice in various groups taken out at the end of the experiment, and the cells were labeled with the corresponding fluorescent antibody. FIG. 3A is for the isolated mesenteric lymph node cells, and FIG. 3B is for the isolated spleen lymphocytes, they were stained withanti-F4/80 antibody+anti-CD11b antibody (double positive cells were recognized as macrophages), and with anti-Gr-1 antibody+anti-CD11 b antibody (double positive cells were identified as neutrophils) respectively.
(§1) 1. Mice were randomly divided into a normal control group, a model group, a cyclosporin A (CsA) (20 mg/kg) treatment group, a 5-aminosalicylic acid (5-ASA) (50 mg/kg) treatment group, and the artemisinin derivative having anti-inflammatory immunosuppressive activity SM934, SM905, SM933 and SM735 (10 mg/kg each) treatment groups, with 8 mice per group. Except for the mice in the normal control group, for the mice in the other groups including the model group, the cyclosporine A treatment group, the 5-aminosalicylic acid treatment group, and the 4 artemisinin derivative treatment groups, 5% DSS was added to the drinking water for 7 consecutive days for induction of the intestinal inflammation model.
2. […]

[2] = test system: pro-inflammatory cytokines in colon tissue of DSS-induced colitis mice; test: Detection of pro-inflammatory cytokine levels in colon tissue by ELISA; settings: colon homogenate, per unit of total protein, 10 mg/kg intragastric, FIG. 5
Method: as §1
2. From the start of the induction to the end of the experiment, mice in the various treatment groups were given cyclosporine A, 5-aminosalicylic acid 5-ASA or4 artemisinin derivatives (10 mg/kg) respectively by intragastric administration to conduct a therapeutic intervention.
[IV] Detection of Pro-Inflammatory Cytokine Levels in Colon Tissue
1. […] After centrifugation, the protein concentration in the homogenate supernatant was quantified with a BCA kit.
2. ELISA was used to detect the content of pro-inflammatory cytokine in the supernatant, which was expressed as the content of cytokine per unit of total protein.

[3] = test system: CD11b+ monocytes in colon tissue of DSS-induced colitis mice; test: Inflammatory cell detection in colon cryosections by fluorescence confocal microscopy; settings: middle segment of colon, 10 mg/kg intragastric, FIG. 4
Method: FIG. 4 is photographs showing the photographing and analyzing results under fluorescence confocal microscopy in which, after the middle segments of colons of mice in various groups were cryosectioned, the nucleus were stained with DAPI fluorescent antibody, and the mononuclear lymphocytes were stained with anti-CD11b antibody.
as §1
2. […]
2. The middle segment of the colon was cryosectioned, stained with the corresponding fluorescent antibody, photographed under a fluorescence confocal microscope and analyzed.

C[C@@H]1CCC2[C@@H](C)[C@@H](OCCN)O[C@H]3O[C@@]4(C)CCC1[C@@]23OO4 (stereo partly drawn) [SM934, β-aminoarteether maleate]
reduced: proportion of macrophages (F4/80+ and CD11b+ double positive cells) [1] | proportion of neutrophils (Gr-1+ and CD11b+ double positive cells) [1] | levels of pro-inflammatory cytokines in colon tissue [2] | infiltration of monocytes (CD11b+ cells) in colon tissue [3]
